Laboratory results from ChEMBL document CHEMBL3507680, “University of Dundee, Gates Library screen for HepG2 cell viability”.

Experiment: Human HepG2 cell viability assay in 384 well format
Type: toxicity, cell-based
Set-up: dose 125 nL, time 70.5 hour; cytotoxicity at 70.5 h: concentration not given beside the values
Details: HepG2 cells, read-out: Inhibition

Compound | cytotoxicity at 70.5 h [%]
COCC1CCN(CCCc2cn[nH]c2)CC1 | 19.8
CC1CCN(S(=O)(=O)c2cccnc2)c2ccccc2S1 (stereo not drawn) | -3.73
CCNC(=O)C1CCCN(Cn2nc(C(C)(C)C)ccc2=O)C1 (stereo not drawn) | 21.4
CC(C)(C)c1ccc(=O)n(CN2CCCC(C(F)(F)F)C2)n1 (stereo not drawn) | -7.29
CCC(CNS(C)(=O)=O)Oc1ccccc1F (stereo not drawn) | -6.95
Cn1cc(CNCCC(=O)NCc2ccccc2)c(-c2cccnc2)n1 | 2.26
Cn1cc(CNCC2(O)CCCCC2)c(-c2cccnc2)n1 | -4.88
CCC(NCc1ccccn1)c1ccccc1OCC(=O)NC (stereo not drawn) | -3.93
CC(C)N(Cc1ccc(Cl)c(Cl)c1)C(=O)Cn1cncn1 | 1.18
Cc1cccn2cc(CNCc3cccc4c3OCCCO4)nc12 | 8.14
O=c1n(CCSCCOc2ccc(Br)cc2)nc2ccccn12 | -10.7
Cc1cc(C(=O)CN2CCN(c3cnccn3)CC2)c(C)n1C(C)C | -10.7
O=C(c1cccnc1O)N(CCO)Cc1cc(Br)ccc1F | -9.73
NC(=O)C1CCN(C(=O)c2ccc(Sc3ccccn3)cc2)CC1 | -2.31
CC(=O)NCC1CCN(C(=O)c2ccc(Sc3ccccn3)cc2)CC1 | -16.7
CC(=O)N1CCN(C(=O)c2ccc(Sc3ccccn3)cc2)CC1 | -14
Cc1cccc(OCCSCCn2nc3ccccn3c2=O)c1 | -11
Cc1cc(OC(F)F)c(C(=O)N2CCN(C3CC3)CC2)s1 | -8.34
COCCC(Cc1cccc(Br)c1)C(=O)N(C)C (stereo not drawn) | -0.534
COCCC(Cc1cccc(Br)c1)C(=O)NCC(N)=O (stereo not drawn) | -9.6
Cc1nn(C)c(C)c1Cc1nc(N(C)C)no1 | -0.362
COC(=O)CN(C(=O)c1cc(C(C)C)no1)c1cccc(F)c1 | -8.3
Cc1noc2ncc(S(=O)(=O)N3CCCC(C)(C)CC3)cc12 | -2.62
COc1cc(NC(=O)N2CCCC2c2nncn2C)ccc1Br (stereo not drawn) | -4.18

Compound | cytotoxicity at 70.5 h [%]
CC(C)CC(CO)NC(=O)NCc1csc(N(C)C)n1 (stereo not drawn) | 0.865
CCOCc1ccc(NC(=O)N2CCCC2c2nncn2C)cc1 (stereo not drawn) | -6.88
COc1ccc(Cn2nnnc2SCC2CCCN(C)C2)cc1 (stereo not drawn) | -8.49
Cc1cc(OC(F)F)c(C(=O)N2CCC(CN(C)C)CC2)s1 | -5.68
COCCC(Cc1cccc(Br)c1)C(=O)O (stereo not drawn) | -5.16
COCc1noc(Cc2c(C)nn(C)c2C)n1 | -2.81
O=C(NCCC(=O)N1CCCC1)c1ccc(SCc2cccnc2)cc1 | -8.9
N#CCc1ccc(OCC(=O)NS(=O)(=O)c2cccs2)cc1 | 1.77
CC1CN(c2ccc(CNC(=O)NCc3ccoc3)cn2)CCO1 (stereo not drawn) | -5.8
CC1CN(c2ccc(CNC(=O)NCCn3ccnc3)cn2)CCO1 (stereo not drawn) | -16.7
O=C(NCCn1ccnc1)NCc1ccc(N2CCCCCC2)nc1 | -14.2
CCc1sc(C(=O)Nc2cnn(CC(N)=O)c2)cc1C | 14.8
CN(C)C(=O)c1ccc(CNc2c(Cl)cccc2C#N)cc1 | 3.41
Cn1cc(C(C)(O)CNc2ccc(C(F)(F)F)cn2)cn1 (stereo not drawn) | -1.94
O=C(CN1CCCC(c2ccn[nH]2)C1)Nc1nncs1 (stereo not drawn) | 1.3
CN(C(=O)C(c1c(F)cccc1Cl)N(C)C)c1nccs1 (stereo not drawn) | 3.15
Cc1cc(CNc2ccnn2C)ccc1-n1cncn1 | -1.29
CCc1cc(NCc2ccc(-n3cncn3)c(C)c2)n(C)n1 | 2.61
CC(=O)Nc1sccc1C(=O)C(C)(C)C | 16.1
CNC(=O)COc1ccc(CNc2c(Cl)cccc2C#N)cc1 | -2.72
COc1ccnc(NC(=O)CSCc2cccnc2)c1 | -1.54
Cc1ncsc1C(=O)N(C)Cc1ccc(Br)o1 | 20.1
O=C(NCCc1ccccc1)N1CCCCC1C1OCCO1 (stereo not drawn) | -1.28
N#Cc1ccc(CNCC2(c3ccccc3)CCOCC2)cc1 | -12
